Key:
[1] = system: RSV infection; conditions: intramuscularly at 15 mg/kg once a month for the duration of RSV season, selected infants; cited from earlier work
[2] = system: RSV Long strain; experiment: Viral Cytopathic Effect (CPE) Assay; type: cell-based; conditions: human respiratory syncytial virus, 144 h; RSV Long strain (ATCC), cell viability after 6 days by Cell Counting kit-8
Protocol: Viral Cytopathic Effect (CPE) Assay
To measure anti-RSV activity of compounds, 96-well plates are seeded with 6×10^3 cells per well in Dulbecco's modified Eagle's medium (DMEM) containing 10% fetal bovine serum (FBS). Cells are infected the next day with sufficient RSV Long strain (ATCC) to produce an approximately 80-90% cytopathic effect after 6 days, in the presence of serial half-log diluted compound in a total volume of 200 μL per well. The viability of cells is assessed after 6 days using Cell Counting kit-8 (Dojindo Molecular Technologies). The absorbance at 450 nm and referenced at 630 nm is measured to determine 50% effective concentration (EC50).

Compound | reduction of hospitalization rate caused by RSV infection [1] | EC50 [2] [nM]
palivizumab: humanized monoclonal antibody against RSV fusion (F) protein approved for prophylaxis in high-risk infants | 45-55% | –
O=C1N(Cc2nc3cc(Cl)ccc3n2C2CC(F)(F)C2)c2cnccc2C12CC2 [Example 2-5, 1′-{[5-Chloro-1-(3,3-difluorocyclobutyl)-1H-benzimidazol-2-yl]methyl}spiro[cyclopropane-1,3′-pyrrolo[2,3-c]pyridin]-2′(1′H)-one] | – | 16
O=C1N(Cc2nc3cc(Cl)cc(F)c3n2[C@@H]2CCS(=O)(=O)C2)c2cnccc2C12CC2 [Example 9-2, 1′-({5-Chloro-1-[(3R)-1,1-dioxidotetrahydrothiophen-3-yl]-7-fluoro-1H-benzimidazol-2-yl}methyl)spiro[cyclopropane-1,3′-pyrrolo[2,3-c]pyridin]-2′(1′H)-one] | – | 0.7
O=C1N(Cc2nc3cc(Cl)ccc3n2[C@H]2CC[C@@H](C(=O)O)CC2)c2cnccc2C12CC2 [Example 2-12, cis-4-{5-Chloro-2-[(2′-oxospiro[cyclopropane-1,3′-pyrrolo[2,3-c]pyridin]-1′(2′H)-yl)methyl]-1H-benzimidazol-1-yl}cyclohexanecarboxylic acid] | – | 510
O=C1N(Cc2nc3cc(Cl)ccc3n2C2CCC(O)CC2)c2cnccc2C12CC2 (centres unmarked) [Example 2-7, 1′-{[5-Chloro-1-(4-hydroxycyclohexyl)-1H-benzimidazol-2-yl]methyl}spiro[cyclopropane-1,3′-pyrrolo[2,3-c]pyridin]-2′(1′H)-one] | – | 1.1

Source: US9670211B2, “Aza-oxo-indoles for the treatment and prophylaxis of respiratory syncytial virus infection” (Hoffmann-La Roche Inc., priority 2013, dated 2017)
